What was measured:
[1] = system: sugar beet; experiment: Test B pre/postemergence sugar beet; type: in vivo, Beta vulgaris
Procedure, shortened: (§1)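 Test chemicals in a non-phytotoxic solvent mixture with surfactant were sprayed preemergence onto planted seeds and postemergence onto plants 2 to 18 cm tall (1- to 4-leaf stage). After twelve to sixteen days in a greenhouse, injury was visually rated against untreated controls from 0 (no effect) to 10 (complete control).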

[2] = system: bamyardgrass; experiment: Test B flood test barnyardgrass; type: in vivo, Echinochloa crus-galli
Procedure, shortened: (§2)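 Flood test on plants grown to the 2-leaf stage; treated plants kept in greenhouse twelve to sixteen days, then visually rated against controls on a 0 (no effect) to 10 (complete control) scale.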

[3] = system: rape; experiment: Test B pre/postemergence rape; type: in vivo, Brassica napus
Procedure, shortened: as §1

[4] = system: smallflower flatsedge; experiment: Test B flood test smallflower flatsedge; type: in vivo, Cyperus difformis
Procedure, shortened: as §2

[5] = system: cocklebur; experiment: Test B pre/postemergence cocklebur; type: in vivo, Xanthium strumarium
Procedure, shortened: as §1

[6] = system: velvetleaf; experiment: Test B pre/postemergence velvetleaf; type: in vivo, Abutilon theophrasti
Procedure, shortened: as §1

[7] = system: duck salad; experiment: Test B flood test duck salad; type: in vivo, Heteranthera limosa
Procedure, shortened: as §2

[8] = system: blackgrass; experiment: Test B pre/postemergence blackgrass; type: in vivo, Alopecurus myosuroides
Procedure, shortened: as §1

[9] = system: soybean; experiment: Test B pre/postemergence soybean; type: in vivo, Glycine max
Procedure, shortened: as §1

[10] = system: pigweed; experiment: Test B pre/postemergence pigweed; type: in vivo, Amaranthus retroflexus
Procedure, shortened: as §1

[11] = system: surinam grass; experiment: Test B pre/postemergence surinam grass; type: in vivo, Brachiaria decumbens
Procedure, shortened: as §1

[12] = system: corn; experiment: Test B pre/postemergence corn; type: in vivo, Zea mays
Procedure, shortened: as §1

[13] = system: purple nutsedge; experiment: Test B pre/postemergence purple nutsedge; type: in vivo, Cyperus rotundus
Procedure, shortened: as §1

[14] = system: giant foxtail; experiment: Test B pre/postemergence giant foxtail; type: in vivo, Setaria faberii
Procedure, shortened: as §1

[15] = system: bedstraw; experiment: Test B pre/postemergence bedstraw; type: in vivo, Galium aparine
Procedure, shortened: as §1

[16] = system: morningglory; experiment: Test B pre/postemergence morningglory; type: in vivo, Ipomoea hederacea
Procedure, shortened: as §1

[17] = Postemergence, Rate 62 g/ha, scale 0 to 10, 0 is no effect, 10 is complete control
[18] = Postemergence, Rate 125 g/ha, scale of 0 to 10 where 0 is no effect and 10 is complete control
[19] = Postemergence, Rate 250 g/ha, scale of 0 to 10, 0 is no effect, 10 is complete control
[20] = Preemergence, Rate 62 g/ha, scale 0 to 10 (0 no effect, 10 complete control)
[21] = Preemergence, Rate 125 g/ha, scale of 0 to 10 where 0 is no effect and 10 is complete control
[22] = Preemergence, Rate 250 g/ha, scale 0 to 10 (0 no effect, 10 complete control)
[23] = Preemergence, Rate 500 g/ha, scale of 0 to 10 where 0 is no effect and 10 is complete control
[24] = Rate 62 g/ha, flood test species, Pre-emergence, visual evaluation after twelve to sixteen days
[25] = Rate 125 g/ha, under heading Pre-emergence, flood test species, visual evaluation after twelve to sixteen days
[26] = Rate 250 g/ha, Pre-emergence (flood test species), scale 0 to 10, 0 is no effect, 10 is complete control
[27] = Rate 500 g/ha, Pre-emergence section of Table B, 0 to 10 scale (0 no effect, 10 complete control)
[28] = Postemergence, Rate 500 g/ha, scale of 0 to 10 where 0 is no effect and 10 is complete control

With `CC(C)N(C(=O)n1oc(=O)n(CNC(=O)c2ccccc2)c1=O)c1ccccc1` [Compound 620] the “Plant response rating, Sugarbeets” value [1, 17] was 0, the “Plant response rating, Sugarbeets” value [1, 18] was 0 and the “Sugarbeets plant response rating” value [1, 19] was 0. The “Sugarbeets plant response rating” value [1, 20] was 0, the “Sugarbeets plant response rating” value [1, 21] was 0 and the “Plant response rating, Sugarbeets” value [1, 22] was 0. The “Plant response rating, Sugarbeets” value [1, 23] was 0, the “Plant response rating, Barnyardgrass (0 to 10 scale, 0 is no effect, 10 is complete control)” value [2, 24] was 0 and the “Barnyardgrass plant response rating (0 to 10 scale, 0 is no effect, 10 is complete control)” value [2, 25] was 0. For the same molecule, the “Barnyardgrass plant response rating” value [2, 26] was 0, the “Barnyardgrass plant response rating” value [2, 27] was 0 and the “Plant response rating, Rape” value [3, 17] was 0. For the same molecule, the “Plant response rating, Rape” value [3, 18] was 0, the “Rape plant response rating” value [3, 19] was 0 and the “Plant response rating, Rape” value [3, 28] was 0. For the same molecule, the “Rape plant response rating” value [3, 20] was 0, the “Rape plant response rating” value [3, 21] was 0 and the “Plant response rating, Rape” value [3, 22] was 0. For the same molecule, the “Plant response rating, Rape” value [3, 23] was 0, the “Plant response rating, S. Flatsedge (0 to 10 scale, 0 is no effect, 10 is complete control)” value [4, 24] was 0 and the “S. Flatsedge plant response rating (0 to 10 scale, 0 is no effect, 10 is complete control)” value [4, 25] was 0. For the same molecule, the “S. Flatsedge plant response rating” value [4, 26] was 0, the “S. Flatsedge plant response rating” value [4, 27] was 0 and the “Plant response rating, Cocklebur” value [5, 17] was 0. For the same molecule, the “Plant response rating, Cocklebur” value [5, 18] was 0, the “Cocklebur plant response rating” value [5, 19] was 0 and the “Plant response rating, Cocklebur” value [5, 28] was 0. The “Cocklebur plant response rating” value [5, 20] was 0, the “Cocklebur plant response rating” value [5, 21] was 0 and the “Plant response rating, Cocklebur” value [5, 22] was 0. For the same molecule, the “Plant response rating, Cocklebur” value [5, 23] was 0, the “Plant response rating, Velvetleaf” value [6, 17] was 0 and the “Plant response rating, Velvetleaf” value [6, 18] was 0. The “Velvetleaf plant response rating” value [6, 19] was 0, the “Velvetleaf plant response rating” value [6, 20] was 0 and the “Velvetleaf plant response rating” value [6, 21] was 0. The “Plant response rating, Velvetleaf” value [6, 22] was 0, the “Plant response rating, Velvetleaf” value [6, 23] was 0 and the “Plant response rating, Ducksalad (0 to 10 scale, 0 is no effect, 10 is complete control)” value [7, 24] was 0. The “Ducksalad plant response rating (0 to 10 scale, 0 is no effect, 10 is complete control)” value [7, 25] was 0, the “Ducksalad plant response rating” value [7, 26] was 0 and the “Ducksalad plant response rating” value [7, 27] was 0. The “Plant response rating, Blackgrass” value [8, 17] was 0, the “Plant response rating, Blackgrass” value [8, 18] was 0 and the “Blackgrass plant response rating” value [8, 19] was 0. For the same molecule, the “Plant response rating, Blackgrass” value [8, 28] was 0, the “Blackgrass plant response rating” value [8, 20] was 0 and the “Blackgrass plant response rating” value [8, 21] was 0. For the same molecule, the “Plant response rating, Blackgrass” value [8, 22] was 0, the “Blackgrass plant response rating” value [8, 23] was 0 and the “Plant response rating, Soybean” value [9, 17] was 1. The “Plant response rating, Soybean” value [9, 18] was 1, the “Soybean plant response rating” value [9, 19] was 1 and the “Soybean plant response rating” value [9, 20] was 0. For the same molecule, the “Soybean plant response rating” value [9, 21] was 0, the “Plant response rating, Soybean” value [9, 22] was 0 and the “Plant response rating, Soybean” value [9, 23] was 0. For the same molecule, the “Plant response rating, Redroot pigweed” value [10, 17] was 0, the “Plant response rating, Redroot pigweed” value [10, 18] was 0 and the “Redroot pigweed plant response rating” value [10, 19] was 0. For the same molecule, the “Redroot pigweed plant response rating” value [10, 20] was 0, the “Redroot pigweed plant response rating” value [10, 21] was 0 and the “Plant response rating, Redroot pigweed” value [10, 22] was 0. The “Plant response rating, Redroot pigweed” value [10, 23] was 0, the “Plant response rating, B. signalgrass” value [11, 17] was 0 and the “Plant response rating, B. signalgrass” value [11, 18] was 0. For the same molecule, the “B. signalgrass plant response rating” value [11, 19] was 0, the “Plant response rating, B. signalgrass” value [11, 28] was 0 and the “B. signalgrass plant response rating” value [11, 20] was 0. The “B. signalgrass plant response rating” value [11, 21] was 0, the “Plant response rating, B. signalgrass” value [11, 22] was 0 and the “B. signalgrass plant response rating” value [11, 23] was 0. The “Plant response rating, Corn” value [12, 17] was 0, the “Plant response rating, Corn” value [12, 18] was 0 and the “Corn plant response rating” value [12, 19] was 0. For the same molecule, the “Plant response rating, Corn” value [12, 28] was 0, the “Corn plant response rating” value [12, 20] was 0 and the “Corn plant response rating” value [12, 21] was 0. The “Plant response rating, Corn” value [12, 22] was 0, the “Plant response rating, Corn” value [12, 23] was 0 and the “Plant response rating, Nutsedge” value [13, 17] was 0. The “Plant response rating, Nutsedge” value [13, 18] was 0, the “Nutsedge plant response rating” value [13, 19] was 0 and the “Plant response rating, Nutsedge” value [13, 28] was 0. For the same molecule, the “Nutsedge plant response rating” value [13, 20] was 0, the “Nutsedge plant response rating” value [13, 21] was 0 and the “Plant response rating, Nutsedge” value [13, 22] was 0. For the same molecule, the “Plant response rating, Nutsedge” value [13, 23] was 0, the “Plant response rating, Giant foxtail” value [14, 17] was 0 and the “Plant response rating, Giant foxtail” value [14, 18] was 0. The “Giant foxtail plant response rating” value [14, 19] was 0, the “Giant foxtail plant response rating” value [14, 20] was 0 and the “Giant foxtail plant response rating” value [14, 21] was 0. For the same molecule, the “Plant response rating, Giant foxtail” value [14, 22] was 2, the “Plant response rating, Giant foxtail” value [14, 23] was 9 and the “Plant response rating, Bedstraw” value [15, 17] was 0. For the same molecule, the “Bedstraw plant response rating” value [15, 20] was 0, the “Bedstraw plant response rating” value [15, 21] was 0 and the “Plant response rating, Bedstraw” value [15, 22] was 0. For the same molecule, the “Bedstraw plant response rating” value [15, 23] was 0, the “Plant response rating, Morningglory” value [16, 17] was 2 and the “Morningglory plant response rating” value [16, 19] was 2. The “Morningglory plant response rating” value [16, 20] was 0, the “Morningglory plant response rating” value [16, 21] was 0 and the “Plant response rating, Morningglory” value [16, 22] was 0. For the same molecule, the “Plant response rating, Morningglory” value [16, 23] was 0.

— patent publication US6737383B1, “Herbicidal oxadiazolidines” (priority 1999, dated 2004)
